Data reported in patent US10301282B2, “Polymorphic form X of nilotinib dihydrochloride hydrate” (Cipla Limited, priority 2015, dated 2019).
Where a name gives a salt, the structure may show the parent alone. Read-outs that look alike come from different tables or passages of the source. One block for each molecule: values may come before it.

Legend:
[1] = as described in U.S. Pat. No. 8,163,904; cited from earlier work
[2] = as described in U.S. Pat. No. 8,163,904; cited from earlier work; remark: listed apart in the source
[3] = Hygroscopicity; type: physicochemical
[4] = Intrinsic dissolution study in 0.1 N HCl; type: physicochemical; details: at 15 minutes time interval, conventional intrinsic dissolution assembly
Protocol: Intrinsic dissolution studies were conducted on nilotinib dihydrochloride Form X and nilotinib monohydrochloride monohydrate in 0.1 N HCl using a conventional intrinsic dissolution assembly.

Structure (SMILES): Cc1cn(-c2cc(NC(=O)c3ccc(C)c(Nc4nccc(-c5cccnc5)n4)c3)cc(C(F)(F)F)c2)cn1 [Form B, nilotinib hydrochloride monohydrate]
solubility in water [1]: very slightly soluble in water | hygroscopicity [2]: hygroscopic

hygroscopicity [3]: substantially non-hygroscopic | release (intrinsic dissolution) ([4]; dihydrochloride hydrate): 109%
Structure (SMILES): Cc1cn(-c2cc(NC(=O)c3ccc(C)c(Nc4nccc(-c5cccnc5)n4)c3)cc(C(F)(F)F)c2)cn1 [nilotinib dihydrochloride Form X, nilotinib dihydrochloride hydrate]

release (intrinsic dissolution) ([4]; monohydrochloride monohydrate): 114%
Structure (SMILES): Cc1cn(-c2cc(NC(=O)c3ccc(C)c(Nc4nccc(-c5cccnc5)n4)c3)cc(C(F)(F)F)c2)cn1 [nilotinib monohydrochloride monohydrate]
